Where two headings read alike, the source gives them in different places.
Target: T1, F508delCFTR (Homo sapiens, UniProt P13569, DEL508-508)
T1 construct: expressed in transfected cells; host or cells: CFBE41o- human lung-derived epithelial cells (CFBE4lo-F508delCFTR-HRP), doxycycline-inducible
Assay: Cell Surface Expression-Horse Radish Peroxidase (CSE-HRP) Assay;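 for Maximum % activity (with co-corrector): co-corrector and positive control are both the same reference corrector at 2 µM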;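 for Maximum % activity (without co-corrector): percent of the 2 µM on-plate positive control corrector response above DMSO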
Assay type: cell-based
Details: CSE-HRP; for Maximum % activity (with co-corrector): with co-corrector (2 μM); for Maximum % activity (with co-corrector) / Emax: maximum at any tested concentration, normalized to on-plate positive control; for Emax: without co-corrector, read-out: Maximum % activity (without co-corrector)
Experimental: Cell Surface Expression-Horse Radish Peroxidase (CSE-HRP) Assay;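 for Maximum % activity (with co-corrector): co-corrector and positive control are both the same reference corrector at 2 µM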;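 for Maximum % activity (without co-corrector): percent of the 2 µM on-plate positive control corrector response above DMSO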
The development was achieved by expressing the F508delCFTR mutation along with a horseradish peroxidase (HRP) in the fourth exofacial loop, and then measuring the HRP activity using luminescence readout from these cells, CFBE4lo-F508delCFTR-HRP, that were incubated overnight with the test corrector compounds, either without or with the co-corrector. […] The test compounds were then added either without or with a co-corrector at the required concentrations and further incubated for 18-24 hours at 33° C. The highest concentration tested was 20 μM with an 8-point concentration response curve using a 3-fold dilution in both the test compound without or with the co-corrector. Three replicate plates were run to determine one EC50. All plates contained negative controls (dimethyl sulfoxide, DMSO) and positive control (2 μM of 3-[(2R,4R)-4-({[1-(2,2-difluoro-1,3-benzodioxol-5-yl)cyclopropyl]carbonyl}amino)-7-methoxy-3,4-dihydro-2H-chromen-2-yl]benzoic acid) as well as on-plate concentration response of the positive control. […] The raw counts from the experiment were analyzed using Accelrys® Assay Explorer v3.3.
1−[3*SDPositive Control+3*SDNegative Control/Absolute(MeanPositive Control−MeanNegative Control)]
wherein “SD” is standard deviation.
The % activity measured at each of the 8 test concentrations of the test compound added either without or with a co-corrector (2 μM of 3-[(2R,4R)-4-({[1-(2,2-difluoro-1,3-benzodioxol-5-yl)cyclopropyl]carbonyl}amino)-7-methoxy-3,4-dihydro-2H-chromen-2-yl]benzoic acid) was normalized to the on-plate positive control using the following formulae:
% activity(Test compound without co-corrector)=[(test compound without co-corrector response−DMSO response)/(positive control response−DMSO response)]*100
% activity(Test compound with co-corrector)=[(test compound with co-corrector response−DMSO response)/(positive control response−DMSO response)]*100
The maximum % activity achieved for the test compound either without or with a co-corrector at any tested concentration is presented in Table 4 along with the respective EC50's calculated using the following general sigmoidal curve with variable Hill slope equation (described as Model 42 in the Accelrys® Assay Explorer v3.3 software):
General sigmoidal curve with concentration, response, top, bottom, EC50 and Hill slope. This model describes a sigmoidal curve with an adjustable baseline, a. The equation can be used to fit curves where response is either increasing or decreasing with respect to the independent variable, “x”.
“x” is a concentration of drug under test. “y” is the response. “a” is the maximum response, and “d” is the minimum response “c” is the inflection point (EC50) for the curve. That is, “y” is halfway between the lower and upper asymptotes when x=c. “b” is the slope-factor or Hill coefficient. The sign of b is positive when the response increases with increasing dose and is negative when the response decreases with increasing dose (inhibition).

[1] = test compound without co-corrector, read-out: EC50 (without co-corrector)
[2] = with co-corrector (2 μM of 3-[(2R,4R)-4-({[1-(2,2-difluoro-1,3-benzodioxol-5-yl)cyclopropyl]carbonyl}amino)-7-methoxy-3,4-dihydro-2H-chromen-2-yl]benzoic acid), read-out: EC50 (with co-corrector)

T1 sequence (P13569 with tags, fused parts or gaps DEL508-508): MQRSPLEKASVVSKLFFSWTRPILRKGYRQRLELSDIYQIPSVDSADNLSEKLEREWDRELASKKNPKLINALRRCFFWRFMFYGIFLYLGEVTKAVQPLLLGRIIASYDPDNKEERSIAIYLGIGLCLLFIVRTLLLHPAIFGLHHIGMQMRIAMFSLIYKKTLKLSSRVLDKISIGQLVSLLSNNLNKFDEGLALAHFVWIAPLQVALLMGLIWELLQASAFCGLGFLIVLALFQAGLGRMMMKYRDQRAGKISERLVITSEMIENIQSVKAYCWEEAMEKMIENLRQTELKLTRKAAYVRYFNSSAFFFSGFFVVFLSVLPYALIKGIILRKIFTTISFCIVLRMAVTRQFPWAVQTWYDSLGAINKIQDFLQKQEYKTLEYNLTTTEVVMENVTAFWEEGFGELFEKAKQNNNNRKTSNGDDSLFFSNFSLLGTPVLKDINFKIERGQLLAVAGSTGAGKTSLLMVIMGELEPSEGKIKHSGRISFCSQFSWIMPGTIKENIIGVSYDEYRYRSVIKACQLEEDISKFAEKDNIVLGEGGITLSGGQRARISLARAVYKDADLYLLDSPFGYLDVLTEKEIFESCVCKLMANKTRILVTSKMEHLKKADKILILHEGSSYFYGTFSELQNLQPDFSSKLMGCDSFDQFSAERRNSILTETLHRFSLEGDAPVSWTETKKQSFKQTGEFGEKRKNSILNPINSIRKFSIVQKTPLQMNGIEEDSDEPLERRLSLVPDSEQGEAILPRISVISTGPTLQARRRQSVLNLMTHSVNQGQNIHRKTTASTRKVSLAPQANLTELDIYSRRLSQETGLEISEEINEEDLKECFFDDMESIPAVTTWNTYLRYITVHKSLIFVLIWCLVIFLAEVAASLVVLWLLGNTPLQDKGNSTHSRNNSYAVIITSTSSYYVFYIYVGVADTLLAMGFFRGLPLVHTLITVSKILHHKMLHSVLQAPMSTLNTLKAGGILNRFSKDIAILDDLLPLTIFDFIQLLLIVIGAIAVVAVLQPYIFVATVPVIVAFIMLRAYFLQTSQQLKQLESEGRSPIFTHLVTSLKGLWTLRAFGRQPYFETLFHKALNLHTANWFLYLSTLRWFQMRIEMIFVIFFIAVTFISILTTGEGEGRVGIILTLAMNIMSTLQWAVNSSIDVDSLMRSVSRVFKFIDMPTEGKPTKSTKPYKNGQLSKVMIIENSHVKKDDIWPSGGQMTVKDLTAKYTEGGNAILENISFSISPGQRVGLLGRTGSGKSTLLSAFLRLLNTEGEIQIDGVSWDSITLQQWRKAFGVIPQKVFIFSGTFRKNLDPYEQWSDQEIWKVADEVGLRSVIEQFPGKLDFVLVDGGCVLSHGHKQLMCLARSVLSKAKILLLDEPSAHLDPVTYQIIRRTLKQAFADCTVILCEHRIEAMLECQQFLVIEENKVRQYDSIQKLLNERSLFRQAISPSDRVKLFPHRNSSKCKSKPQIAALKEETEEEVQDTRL

| SMILES | EC50 [1] | EC50 [2] | Maximum % activity (with co-corrector) | Emax |
| --- | --- | --- | --- | --- |
| COc1ccc(C(F)(F)F)cc1CN[C@@H]1[C@@H](C(C)(C)C)[C@H](C(=O)O)N(C(=O)[C@@H]2CCC[C@@H](OC)C2)[C@@H]1c1ccccc1 (racemic) [II-36] | 1 to 10 µM | 1 to 10 µM | +++ (≥350) | > 200% |
| COc1cc(Cl)ccc1CN[C@@H]1[C@@H](C(C)(C)C)[C@H](C(=O)O)N(C(=O)[C@@H]2CCC[C@@H](OC)C2)[C@@H]1c1ccccc1 (racemic) [II-38] | 1 to 10 µM | 1 to 10 µM | +++ (≥350) | 100 to 200% |
| COc1cc(F)ccc1CN[C@@H]1[C@@H](C(C)(C)C)[C@H](C(=O)O)N(C(=O)OC(C)C)[C@@H]1c1ccccc1 (racemic) [II-39] | 1 to 10 µM | 1 to 10 µM | +++ (≥350) | 100 to 200% |
| COc1ccc(C)cc1CN[C@@H]1[C@@H](C(C)(C)C)[C@H](C(=O)O)N(C(=O)OC(C)C)[C@@H]1c1ccccc1 (racemic) [II-40] | 1 to 10 µM | 1 to 10 µM | +++ (≥350) | 100 to 200% |
| COc1cc(OC(F)(F)F)ccc1CN[C@@H]1[C@@H](C(C)(C)C)[C@H](C(=O)O)N(C(=O)OC(C)C)[C@@H]1c1ccccc1 (racemic) [II-41] | 1 to 10 µM | 1 to 10 µM | +++ (≥350) | > 200% |
| COc1ccc(F)cc1CN[C@@H]1[C@@H](C(C)(C)C)[C@H](C(=O)O)N(C(=O)OC(C)C)[C@@H]1c1ccccc1 (racemic) [II-42] | 1 to 10 µM | 1 to 10 µM | +++ (≥350) | 100 to 200% |
| COc1ccc(C(C)(C)C)cc1CN[C@@H]1[C@@H](C(C)(C)C)[C@H](C(=O)O)N(C(=O)OC(C)C)[C@@H]1c1ccccc1 (racemic) [II-43] | 1 to 10 µM | 1 to 10 µM | +++ (≥350) | > 200% |
| COc1ccc(C(C)C)cc1CN[C@@H]1[C@@H](C(C)(C)C)[C@H](C(=O)O)N(C(=O)OC(C)C)[C@@H]1c1ccccc1 (racemic) [II-44] | 1 to 10 µM | 1 to 10 µM | +++ (≥350) | > 200% |
| COc1cc(Cl)ccc1CN[C@@H]1[C@@H](C(C)(C)C)[C@H](C(=O)O)N(C(=O)OC(C)C)[C@@H]1c1ccccc1 (racemic) [II-45] | 1 to 10 µM | 1 to 10 µM | +++ (≥350) | > 200% |
| COc1ccccc1CN[C@@H]1[C@@H](C(C)(C)C)[C@H](C(=O)O)N(C(=O)OC(C)C)[C@@H]1c1ccccc1 (racemic) [II-46] | 1 to 10 µM | 1 to 10 µM | +++ (≥350) | 100 to 200% |
| COc1cc(Cl)ccc1CN[C@H]1[C@H](C(C)(C)C)[C@@H](C(=O)O)N(C(=O)[C@H](OC)c2ccccc2)[C@H]1c1cccnc1N(C)C (racemic) [II-47] | 1 to 10 µM | 1 to 10 µM | +++ (≥350) | 100 to 200% |
| COc1cc(C(F)(F)F)ccc1CN[C@H]1[C@H](C(C)(C)C)[C@@H](C(=O)O)N(C(=O)[C@H](OC)c2ccccc2)[C@H]1c1cccnc1N(C)C (racemic) [II-48] | 1 to 10 µM | 1 to 10 µM | +++ (≥350) | 100 to 200% |
| COc1cc(C(F)(F)F)ccc1CN[C@@H]1[C@@H](C(C)(C)C)[C@H](C(=O)O)N(C(=O)[C@@H]2CCCCO2)[C@@H]1c1ccccc1 (racemic) [II-49] | 1 to 10 µM | 1 to 10 µM | +++ (≥350) | 100 to 200% |
| COc1cc(C(F)(F)F)ccc1CN[C@@H]1[C@@H](C(C)(C)C)[C@H](C(=O)O)N(C(=O)C2CCCCC2)[C@@H]1c1cccnc1N(C)C (racemic) [II-51] | 1 to 10 µM | 1 to 10 µM | +++ (≥350) | 100 to 200% |
| COc1ncc(C(F)(F)F)cc1CN[C@@H]1[C@@H](C(C)(C)C)[C@H](C(=O)O)N(C(=O)C2CCCCC2)[C@@H]1c1cccnc1N(C)C (racemic) [II-52] | 1 to 10 µM | 1 to 10 µM | +++ (≥350) | 100 to 200% |
| Cc1cc(C(F)(F)F)cc(N[C@H]2[C@H](C(C)(C)C)[C@@H](C(=O)O)N(C(=O)C3CCCCC3)[C@H]2c2ccccn2)n1 (racemic) [II-53] | 1 to 10 µM | 1 to 10 µM | ++ (≥150 and <350) | < 100% |
| Cc1cc(C(F)(F)F)cc(N[C@@H]2[C@@H](C(C)(C)C)[C@H](C(=O)O)N(C(=O)Cc3ccccc3)[C@@H]2c2ccccc2)n1 (racemic) [II-55] | > 10 µM | 1 to 10 µM | ++ (≥150 and <350) | < 100% |
| COc1ccc(C(F)(F)F)cc1CN[C@@H]1[C@@H](C(C)(C)C)[C@H](C(=O)O)N(C(=O)OC(C)C)[C@@H]1c1ccccc1N(C)C (racemic) [II-56] | 1 to 10 µM | 1 to 10 µM | +++ (≥350) | 100 to 200% |
| COc1cc(C(F)(F)F)ccc1CN[C@@H]1[C@@H](C(C)(C)C)[C@H](C(=O)O)N(C(=O)OC(C)C)[C@@H]1c1ccccc1N(C)C (racemic) [II-57] | 1 to 10 µM | 1 to 10 µM | +++ (≥350) | 100 to 200% |
| COc1ccc(C(F)(F)F)cc1CN[C@H]1[C@H](C(C)(C)C)[C@@H](C(=O)O)N(C(=O)C2CCCO2)[C@H]1c1ccccc1 (mixture of isomers) [II-59] | 1 to 10 µM | 1 to 10 µM | +++ (≥350) | 100 to 200% |
| COc1cc(C(F)(F)F)ccc1CN[C@H]1[C@H](C(C)(C)C)[C@@H](C(=O)O)N(C(=O)C2CCCO2)[C@H]1c1ccccc1 (mixture of isomers) [II-60] | 1 to 10 µM | 1 to 10 µM | +++ (≥350) | 100 to 200% |
| COc1ccc(Cl)cc1CN[C@H]1[C@H](C(C)(C)C)[C@@H](C(=O)O)N(C(=O)C2CCCO2)[C@H]1c1ccccc1 (mixture of isomers) [II-61] | 1 to 10 µM | 1 to 10 µM | +++ (≥350) | 100 to 200% |
| COc1ccc(C(F)(F)F)cc1CN[C@@H]1[C@@H](C(C)(C)C)[C@H](C(=O)O)N(C(=O)[C@@H](C)Oc2ccccc2)[C@@H]1c1ccccc1 (racemic) [II-66] | 1 to 10 µM | 1 to 10 µM | ++ (≥150 and <350) | < 100% |
| COc1ccc(C(F)(F)F)cc1CN[C@@H]1[C@@H](C(C)(C)C)[C@H](C(=O)O)N(C(=O)C2CCC(F)(F)CC2)[C@@H]1c1ccccc1 (racemic) [II-68] | 1 to 10 µM | 1 to 10 µM | +++ (≥350) | < 100% |
| COc1cc(C(F)(F)F)ccc1CN[C@@H]1[C@@H](C(C)(C)C)[C@H](C(=O)O)N(C(=O)C2CCC(F)(F)CC2)[C@@H]1c1ccccc1 (racemic) [II-69] | 1 to 10 µM | 1 to 10 µM | ++ (≥150 and <350) | < 100% |
| COc1ccc(C(F)(F)F)cc1CN[C@@H]1[C@@H](C(C)(C)C)[C@H](C(=O)O)N(C(=O)C2CCC3(CC2)CC3)[C@@H]1c1ccccc1 (racemic) [II-70] | 1 to 10 µM | 1 to 10 µM | ++ (≥150 and <350) | < 100% |
| COc1ccc(C#N)cc1CN[C@@H]1[C@@H](C(C)(C)C)[C@H](C(=O)O)N(C(=O)C2CCCCC2)[C@@H]1c1ccccc1 (racemic) [II-71] | 1 to 10 µM | 1 to 10 µM | ++ (≥150 and <350) | < 100% |

— patent US20180099931A1 (AbbVie S.à.r.l., priority 2016, published 2018)
